Like-named read-outs stand apart in the source and are kept apart here.
What was measured:
Format in all cases: biochemical
CDK1/CCNB1 = CDK1/CCNB1 (Homo sapiens, UniProt P06493); experiment: CDK1 homogeneous time-resolved fluorescence (HTRF) kinase assay; details: CDK1/CCNB
Outline: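 CDK1/CCNB1 0.5 nM + cpd, 20 min 23 °C; add 1 mM ATP, 50 nM ULight-4E-BP1 peptide, 60 min 23 °C; stop 10 mM EDTA; 2 nM Eu-Ab, 60 min; HTRF 665 nm. 11-pt half-log, top 10 μM typical; IC50.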

CDK6/CCND1 = CDK6/CCND1 (Homo sapiens, UniProt Q00534); experiment: CDK6 homogeneous time-resolved fluorescence (HTRF) kinase assay; details: CDK6/CCND
Sequence of CDK6/CCND1 (Q00534 whole entry): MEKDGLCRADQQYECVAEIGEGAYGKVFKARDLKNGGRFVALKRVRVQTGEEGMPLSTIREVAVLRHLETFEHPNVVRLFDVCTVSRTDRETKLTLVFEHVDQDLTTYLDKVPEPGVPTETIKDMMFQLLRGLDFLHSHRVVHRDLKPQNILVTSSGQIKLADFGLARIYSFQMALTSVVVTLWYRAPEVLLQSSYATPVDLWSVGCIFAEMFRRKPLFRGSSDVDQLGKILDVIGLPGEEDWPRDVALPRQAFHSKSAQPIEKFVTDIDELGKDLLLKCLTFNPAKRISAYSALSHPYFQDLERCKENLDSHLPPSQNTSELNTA
Sequence of CDK6/CCND1 (P24385 whole entry partner): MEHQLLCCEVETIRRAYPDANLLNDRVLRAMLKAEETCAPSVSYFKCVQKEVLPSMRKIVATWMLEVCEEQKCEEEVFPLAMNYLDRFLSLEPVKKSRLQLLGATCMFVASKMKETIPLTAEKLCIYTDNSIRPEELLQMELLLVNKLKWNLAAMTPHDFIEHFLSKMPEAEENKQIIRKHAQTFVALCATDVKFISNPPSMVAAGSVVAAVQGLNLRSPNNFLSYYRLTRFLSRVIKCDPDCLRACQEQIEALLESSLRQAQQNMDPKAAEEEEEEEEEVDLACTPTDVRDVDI
Outline: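 Enzyme pre-incubated 20 min at 23 °C with compound, then reacted 60 min at 23 °C with 1 mM ATP and 50 nM ULight-4E-BP1 (Thr37/46) peptide; 1 nM enzyme, 1% DMSO. EDTA-stopped, Eu-anti-phospho antibody TR-FRET read (665 nm or 665/615 ratio); 11-point half-log titration from 10 μM gave IC50.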

CDK4/CCND3 = CDK4/CCND3 (Homo sapiens, UniProt P11802); experiment: CDK4 homogeneous time-resolved fluorescence (HTRF) kinase assay; details: CDK4/CCND
Sequence of CDK4/CCND3 (P11802 whole entry): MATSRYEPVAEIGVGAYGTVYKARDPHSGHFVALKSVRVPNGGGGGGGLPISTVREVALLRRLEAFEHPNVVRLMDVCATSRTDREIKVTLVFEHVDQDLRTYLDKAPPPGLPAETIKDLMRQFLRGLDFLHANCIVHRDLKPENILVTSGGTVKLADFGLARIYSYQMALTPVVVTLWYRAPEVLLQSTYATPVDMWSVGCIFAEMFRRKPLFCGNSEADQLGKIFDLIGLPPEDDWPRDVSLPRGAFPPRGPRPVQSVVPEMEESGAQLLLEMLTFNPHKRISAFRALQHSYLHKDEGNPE
Sequence of CDK4/CCND3 (P30281 whole entry partner): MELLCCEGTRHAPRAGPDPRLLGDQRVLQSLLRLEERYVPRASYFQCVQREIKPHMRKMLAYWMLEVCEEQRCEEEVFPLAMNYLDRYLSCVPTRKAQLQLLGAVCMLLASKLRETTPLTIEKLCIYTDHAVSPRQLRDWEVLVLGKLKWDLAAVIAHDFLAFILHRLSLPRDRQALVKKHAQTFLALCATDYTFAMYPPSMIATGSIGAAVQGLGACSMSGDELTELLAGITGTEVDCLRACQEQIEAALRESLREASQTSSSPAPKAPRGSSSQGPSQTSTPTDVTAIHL
Protocol: A CDK homogeneous time-resolved fluorescence (HTRF) assay was used to assess the potency of the compounds described herein.
To an untreated 384-well microtiter plate (ProxiPlate) was added 100 nL 100×test compound in DMSO and 5 μL 2×CDK enzyme in assay buffer (50 mM HEPES, 1 mM EGTA, 10 mM MgCl2, 0.01% Tween 20, 2 mM DTT). The plate was centrifuged at 800 RPM for 1 min then incubated for 20 min at 23 °C. 2.5 μL per well of 4×ATP and 2.5 μL 4×ULight™-eIF4E-binding protein 1 (Thr37/46) Peptide substrate were added to all wells. After addition, the plates were centrifuged at 800 RPM for 1 min. The plates were incubated at 23 °C for 60 min. 5 μL per well 4×EDTA solution were added to each well to stop the reaction. 5 μL 4×LANCE Ultra Europium-anti-phospho-eIF4E-binding protein 1 (Thr37/46) antibody were added to each well and the plate was centrifuged for 1 min at 800 RPM. The plate was incubated for 60 min at 23 °C. Fluorescence was read at 340 nm excitation and 665 nm emission on an EnVision 2105 fluorescence reader. The final concentrations of reagents in the activity assay were 1.5 nM CDK4/CCND3, 1 mM ATP, 50 nM ULight™-eIF4E-binding protein 1 (Thr37/46) Peptide substrate, 1% DMSO, 10 mM EDTA, and 2 nM LANCE Ultra Europium-anti-phospho-eIF4E-binding protein 1 (Thr37/46).
Dose-response titrations were conducted by using an 11-point, half-logarithmic serial dilution scheme typically starting at 10 μM. Signals were reported as fluorescence units at 665 nm or the ratio of fluorescence units at 665 nm/fluorescence units at 615 nm. Signals are referred to below as “Lance signals”.
Using this assay, the IC50 values of example compounds were determined. Table 3 illustrates the IC50 for various Example compounds of Formula IA. Table 4 illustrates the IC50 for various other Example compounds of Formula I. ND=not determined.

CDK2/CCNE1 = CDK2/CCNE1 (Homo sapiens, UniProt P24941); experiment: CDK2 homogeneous time-resolved fluorescence (HTRF) kinase assay; details: CDK2/CCNE
Outline: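 3 nM CDK2/CCNE1 was preincubated with compound for 20 min at 23 °C in HEPES buffer (pH not stated), then reacted 60 min with 1 mM ATP and 50 nM ULight-4E-BP1 (Thr37/46) peptide. After EDTA stop, Eu-anti-phospho-4E-BP1 antibody (2 nM) was added for 60 min and TR-FRET read at 665 nm.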

[1] = 25-250 nM marked x, read-out: CDK1/CCNB IC50 25-250 nM
[2] = 25-250 nM marked x, read-out: CDK6/CCND IC50 25-250 nM
[3] = 25-250 nM marked x, read-out: CDK4/CCND IC50 25-250 nM
[4] = <25 nM, read-out: CDK2/CCNE IC50 <25 nM
[5] = >250 nM marked x, read-out: CDK1/CCNB IC50 >250 nM
[6] = <25 nM, read-out: CDK6/CCND IC50 <25 nM
[7] = <25 nM, read-out: CDK4/CCND IC50 <25 nM
[8] = 25-250 nM marked x, read-out: CDK2/CCNE IC50 25-250 nM
[9] = >250 nM marked x, read-out: CDK6/CCND IC50 >250 nM
[10] = >250 nM marked x, read-out: CDK4/CCND IC50 >250 nM
[11] = >250 nM marked x, read-out: CDK2/CCNE IC50 >250 nM

Sequence of CDK1/CCNB1 (P06493 whole entry): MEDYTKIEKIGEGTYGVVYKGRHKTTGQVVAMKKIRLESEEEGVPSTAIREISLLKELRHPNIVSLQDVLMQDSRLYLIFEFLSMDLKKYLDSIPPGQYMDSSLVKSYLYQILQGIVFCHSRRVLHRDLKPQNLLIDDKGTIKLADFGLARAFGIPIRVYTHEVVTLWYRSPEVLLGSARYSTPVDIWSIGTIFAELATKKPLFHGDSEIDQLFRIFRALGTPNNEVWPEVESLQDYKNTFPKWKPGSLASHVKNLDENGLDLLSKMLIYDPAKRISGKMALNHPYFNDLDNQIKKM
Sequence of CDK1/CCNB1 (P14635 whole entry partner): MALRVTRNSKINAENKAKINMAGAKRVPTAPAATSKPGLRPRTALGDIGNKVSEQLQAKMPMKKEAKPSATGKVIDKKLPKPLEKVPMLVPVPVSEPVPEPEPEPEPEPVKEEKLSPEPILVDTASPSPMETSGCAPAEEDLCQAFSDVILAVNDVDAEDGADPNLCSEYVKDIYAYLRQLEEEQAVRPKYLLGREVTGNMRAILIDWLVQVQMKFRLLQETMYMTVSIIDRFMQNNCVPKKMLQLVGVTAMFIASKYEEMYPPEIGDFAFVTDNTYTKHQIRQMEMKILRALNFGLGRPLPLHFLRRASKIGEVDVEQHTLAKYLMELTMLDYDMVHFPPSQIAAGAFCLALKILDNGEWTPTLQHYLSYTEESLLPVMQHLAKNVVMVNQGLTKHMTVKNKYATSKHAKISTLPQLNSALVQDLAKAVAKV

SMILES | IC50 (CDK1/CCNB1; [1]) [µM] | IC50 (CDK6/CCND1; [2]) [µM] | IC50 (CDK4/CCND3; [3]) [µM] | IC50 (CDK2/CCNE1; [4]) [µM] | IC50 (CDK1/CCNB1; [5]) [µM] | IC50 (CDK6/CCND1; [6]) [µM] | IC50 (CDK4/CCND3; [7]) [µM] | IC50 (CDK2/CCNE1; [8]) [µM] | IC50 (CDK6/CCND1; [9]) [µM] | IC50 (CDK4/CCND3; [10]) [µM] | IC50 (CDK2/CCNE1; [11]) [µM]
CS(=O)(=O)N1CCC(Nc2cc3c(N4CCCC(O)C4)nccc3cn2)CC1 (racemic) [Ex 42, 1-(7-((1-(methylsulfonyl)piperidin-4-yl)amino)-2,6-naphthyridin-1-yl)piperidin-3-ol] | 0.025 to 0.25 | 0.025 to 0.25 | 0.025 to 0.25 | < 0.025 |  |  |  |  |  |  | 
CS(=O)(=O)N1CCC(Nc2cc3c(N4CCC(C#N)C4)nccc3cn2)CC1 (racemic) [Ex 45, 1-(7-((1-(methylsulfonyl)piperidin-4-yl)amino)-2,6-naphthyridin-1-yl)pyrrolidine-3-carbonitrile] |  | 0.025 to 0.25 | 0.025 to 0.25 | < 0.025 | > 0.25 |  |  |  |  |  | 
CN(C)C1CCCN(c2nccc3cnc(NC4CCN(S(C)(=O)=O)CC4)cc23)CC1 (racemic) [Ex 52, 5-(4-(dimethylamino)azepan-1-yl)-N-(1-(methylsulfonyl)piperidin-4-yl)-2,6-naphthyridin-3-amine] |  |  |  |  | > 0.25 | < 0.025 | < 0.025 | 0.025 to 0.25 |  |  | 
O=C(NC1CCSC1=O)c1ccc(Nc2cc3c(C4=CCCCC4)nccc3cn2)cc1 (racemic) [Ex 114, 4-((5-(cyclohex-1-en-1-yl)-2,6-naphthyridin-3-yl)amino)-N-(2-oxotetrahydrothiophen-3-yl)benzamide] | 0.025 to 0.25 |  |  | < 0.025 |  | < 0.025 | < 0.025 |  |  |  | 
CS(=O)(=O)c1ccc(Nc2cc3c(C4=CCC(O)CC4)nccc3cn2)cc1 (racemic) [Ex 120, 4-(7-((4-(methylsulfonyl)phenyl)amino)-2,6-naphthyridin-1-yl)cyclohex-3-en-1-ol] |  | 0.025 to 0.25 | 0.025 to 0.25 | < 0.025 | > 0.25 |  |  |  |  |  | 
CS(=O)(=O)c1ccc(Nc2cc3c(C4=CCC(C#N)CC4)nccc3cn2)cc1 (racemic) [Ex 121, 4-(7-((4-(methylsulfonyl)phenyl)amino)-2,6-naphthyridin-1-yl)cyclohex-3-ene-1-carbonitrile] |  | 0.025 to 0.25 | 0.025 to 0.25 | < 0.025 | > 0.25 |  |  |  |  |  | 
C=CS(=O)(=O)c1ccc(Nc2cc3c(N4CCC(C#N)C4)nccc3cn2)cc1 (racemic) [Ex 122, 1-(7-((4-(vinylsulfonyl)phenyl)amino)-2,6-naphthyridin-1-yl)pyrrolidine-3-carbonitrile] |  |  |  |  | > 0.25 |  |  | 0.025 to 0.25 | > 0.25 | > 0.25 | 
CS(=O)(=O)c1ccc(Nc2cc3c(C#CC4CC(O)C4)nccc3cn2)cc1 (racemic) [Ex 147, 3-((7-((4-(methylsulfonyl)phenyl)amino)-2,6-naphthyridin-1-yl)ethynyl)cyclobutan-1-ol] | 0.025 to 0.25 | 0.025 to 0.25 | 0.025 to 0.25 | < 0.025 |  |  |  |  |  |  | 
Cc1c(-c2nccc3cnc(Nc4ccc(S(C)(=O)=O)cc4)cc23)ccc2c1cnn2CC1CCNC1 (racemic) [Ex 193, 5-(4-methyl-1-(pyrrolidin-3-ylmethyl)-1H-indazol-5-yl)-N-(4-(methylsulfonyl)phenyl)-2,6-naphthyridin-3-amine] |  | 0.025 to 0.25 | 0.025 to 0.25 | < 0.025 | > 0.25 |  |  |  |  |  | 
CS(=O)(=O)c1ccc(Nc2cc3c(C4CCC(O)CC4)nccc3cn2)cc1 (racemic) [Ex 215, 4-(7-((4-(methylsulfonyl)phenyl)amino)-2,6-naphthyridin-1-yl)cyclohexan-1-ol] |  |  |  |  | > 0.25 |  |  | 0.025 to 0.25 | > 0.25 | > 0.25 | 
O=S(=O)(CCO)c1ccc(Nc2cc3c(N4CCC(O)C4)nccc3cn2)cc1 (racemic) [Ex 221, 1-(7-((4-((2-hydroxyethyl)sulfonyl)phenyl)amino)-2,6-naphthyridin-1-yl)pyrrolidin-3-ol] |  |  |  |  | > 0.25 |  |  | 0.025 to 0.25 | > 0.25 | > 0.25 | 
CN1CCC(c2nccc3cnc(Nc4ccc(S(C)(=O)=O)cc4)cc23)C1 (racemic) [Ex 229, 5-(1-methylpyrrolidin-3-yl)-N-(4-(methylsulfonyl)phenyl)-2,6-naphthyridin-3-amine] |  |  |  |  | > 0.25 |  |  |  | > 0.25 | > 0.25 | > 0.25
CS(=O)(=O)c1ccc(Nc2cc3c(C4CCN(Cc5ccccc5)C4)nccc3cn2)cc1 (racemic) [Ex 230, 5-(1-benzylpyrrolidin-3-yl)-N-(4-(methylsulfonyl)phenyl)-2,6-naphthyridin-3-amine] |  |  |  |  | > 0.25 |  |  |  | > 0.25 | > 0.25 | > 0.25
COc1ccc(CN2CCC(c3nccc4cnc(Nc5ccc(S(C)(=O)=O)cc5)cc34)C2)cc1 (racemic) [Ex 231, 5-(1-(4-methoxybenzyl)pyrrolidin-3-yl)-N-(4-(methylsulfonyl)phenyl)-2,6-naphthyridin-3-amine] |  |  |  |  | > 0.25 |  |  |  | > 0.25 | > 0.25 | > 0.25
CS(=O)(=O)c1ccc(Nc2cc3c(C4CCN(Cc5cccnc5)C4)nccc3cn2)cc1 (racemic) [Ex 232, N-(4-(methylsulfonyl)phenyl)-5-(1-(pyridin-3-ylmethyl)pyrrolidin-3-yl)-2,6-naphthyridin-3-amine] |  |  |  |  | > 0.25 |  |  |  | > 0.25 | > 0.25 | > 0.25
CS(=O)(=O)c1ccc(Nc2cc3c(C4CCN(Cc5ccc(Cl)cc5)C4)nccc3cn2)cc1 (racemic) [Ex 233, 5-(1-(4-chlorobenzyl)pyrrolidin-3-yl)-N-(4-(methylsulfonyl)phenyl)-2,6-naphthyridin-3-amine] |  |  |  |  | > 0.25 |  |  | 0.025 to 0.25 | > 0.25 | > 0.25 | 
CCC(=O)N1CCC(c2nccc3cnc(Nc4ccc(S(C)(=O)=O)cc4)cc23)C1 (racemic) [Ex 234, 1-(3-(7-((4-(methylsulfonyl)phenyl)amino)-2,6-naphthyridin-1-yl)pyrrolidin-1-yl)propan-1-one] |  |  |  |  | > 0.25 |  |  |  | > 0.25 | > 0.25 | > 0.25
CS(=O)(=O)c1ccc(Nc2cc3c(C4CCN(S(C)(=O)=O)C4)nccc3cn2)cc1 (racemic) [Ex 235, N-(4-(methylsulfonyl)phenyl)-5-(1-(methylsulfonyl)pyrrolidin-3-yl)-2,6-naphthyridin-3-amine] |  |  |  |  | > 0.25 |  |  |  | > 0.25 | > 0.25 | > 0.25
CC(C)S(=O)(=O)N1CCC(c2nccc3cnc(Nc4ccc(S(C)(=O)=O)cc4)cc23)C1 (racemic) [Ex 236, 5-(1-(isopropylsulfonyl)pyrrolidin-3-yl)-N-(4-(methylsulfonyl)phenyl)-2,6-naphthyridin-3-amine] |  |  |  |  | > 0.25 |  |  |  | > 0.25 | > 0.25 | > 0.25
C=CCS(=O)(=O)N1CCC(c2nccc3cnc(Nc4ccc(S(C)(=O)=O)cc4)cc23)C1 (racemic) [Ex 237, 5-(1-(allylsulfonyl)pyrrolidin-3-yl)-N-(4-(methylsulfonyl)phenyl)-2,6-naphthyridin-3-amine] |  |  |  |  | > 0.25 |  |  |  | > 0.25 | > 0.25 | > 0.25

— patent US20260325533A1, “CDK INHIBITOR COMPOUNDS” (ALEKSIA THERAPEUTICS, INC., priority 2023, published 2026)
